Legend:
mouse red blood cells = test: Hemolysis activity (membrane fusion ability) at pH 7.4 and 5.5 (Experimental Example 8); format: cell-based, ICR mice; details: physiological pH (7.4); final lipid concentration 100 µM; Fig. 3
Procedure: LNP encapsulating mRNA that expresses luciferase (cationic lipid:DOPC:Chol:DMG-PEG2k = 52.5:7.5:40:1.5 (molar ratio)) was prepared by the method described in […], 1. As cationic lipid, the cationic lipid of Comparative Example, compound 94, compound 112, compound 162, compound 181, or compound 194 was used.
The collected blood was immediately mixed with 1.0 µL of heparin solution (5000 U/5 mL). About 9 mL of PBS was added to the blood to make the total volume 10 mL. The mixture was then mixed by inversion and centrifuged (4°C, 400 g, 10 min). The supernatant containing plasma components was removed using a Pasteur pipette. About 9 mL of PBS was added to the blood cell components to make the total volume 10 mL, and the mixture was centrifuged again. A similar washing procedure was repeated 4 times to obtain mouse red blood cells.
2, 4, 6, 8, and 10 µL of mouse red blood cells were weighed and diluted with PBS containing 1 w/v% Triton-X100. The entire diluted solution was transferred to a clear 96-well plate, and the absorbance at 545 nm was measured using a plate reader. A calibration curve was created using these samples, and the point where the absorbance reached 1 was determined as the amount of blood cells to be used in the hemolysis assay. Empty LNP solution was weighed into an Eppendorf tube and diluted with malic acid-PBS buffer (pH 5.5, pH 7.4), followed by addition of mouse red blood cells. The final lipid concentration was 100 µM at pH 7.4 and 33.3 µM at pH 5.5, and the final volume of the solution was 250 µL. Each tube was shaken at 1900 rpm for 15 min. Each sample was centrifuged under centrifugation conditions (4°C, 400 g, 5 min), and 100 µL of the supernatant was transferred to a clear 96-well plate and the absorbance at 545 nm was measured. Untreated red blood cells were used as the negative control. 1 w/v% Triton-X was used as the positive control. The hemolysis activity of each sample was calculated using the following formula: Hemolysis activity (%) = 100×(absorbance of each sample - absorbance of negative control)/(absorbance of positive control - absorbance of negative control).

[1] = Measurement of Liposomal pKa (TNS fluorescence, LNP without nucleic acid); details: cationic lipid:DOPC:Chol = 52.5:7.5:40 (molar ratio) + DMG-PEG2k about 1.5 mol, pH at which the relative fluorescence intensity was 50%
Procedure: Lipid nano particles (LNP) without containing nucleic acid were used for the evaluation of Liposomal pKa.
To the obtained mixture was further added DMG-PEG2k (2 mM ethanol solution) in an amount of about 1.5 mol with respect to the total amount 100 mol of cationic lipid, DOPC, and Chol, and then ethanol was added to prepare an ethanol solution of the lipid (total amount: 360 µL).
An acidic malic acid buffer (20 mM, pH 3.0) (1080 µL) containing NaCl at a final concentration of 30 mM and an ethanol solution (360 µL) of lipid were each weighed in a syringe. Using an ultra high-speed nanomedicament producing apparatus NanoAssmblr (manufactured by Precision NanoSystems), LNP was prepared under the conditions of addition rate of acidic buffer solution: 3 mL/min, addition rate of ethanol solution of lipid: 1 mL/min, and syringe holder temperature: 25°C, and collected in a 15 mL tube. […]
20 mM Citrate buffer, sodium phosphate buffer, and tris HCl buffer, each containing NaCl at a final concentration of 150 mM and adjusted to various pHs within the range of pH 3.0 to 10.0, were prepared. […] The relative fluorescence intensity was calculated as a percentage, with the maximum value of the fluorescence intensity in each LNP being 100% and the minimum value being 0%.

[2] = Particle size, PdI and zeta potential of mRNA-encapsulating LNPs by dynamic light scattering (Experimental Example 2); format: physicochemical; details: mRNA-encapsulating LNP containing the cationic lipid
[3] = Particle size, PdI and zeta potential of mRNA-encapsulating LNPs by dynamic light scattering (Experimental Example 6); format: physicochemical; details: mRNA-encapsulating LNP
[4] = dispersion in PBS, dynamic light scattering (Table 5-3)
[5] = cationic lipid:DOPC:Chol=49:7.5:42.5:1, dispersion in TBS, dynamic light scattering (Tables 8-1, 8-2)

Liposomal pKa [1]: 6.50
zeta potential (mV) ([2]; dispersion in PBS (Table 5-3)): -4.47 mV
PdI [2, 4]: 0.099
particle size (nm) [2, 4]: 108.70 nm
zeta potential (mV) ([3]; cationic lipid:DOPC:Chol=49:7.5:42.5:1, dispersion in TBS (Tables 8-1, 8-2)): -2.68 mV
PdI [3, 5]: 0.075
particle size (nm) [3, 5]: 123.80 nm
Structure (SMILES): CCCCCCCC/C=C\CCCCCCCC(=O)Oc1ccc(CC(=O)OCCC2CCN(CCSSCCN3CCC(CCOC(=O)Cc4ccc(OC(=O)CCCCCCC/C=C\CCCCCCCC)cc4)CC3)CC2)cc1 [Comparative Example, reference compound]
hemolysis activity (mouse red blood cells): none
